Assay results as given in PMC8959600 (eLife, 2022).

Tests used:
E. coli = test: MIC by micro dilution, clinical E. coli isolates from Vietnam; assay type: cell-based; details: Escherichia coli; seven E. coli from diarrhoeal cases in Vietnam; read-out: median MIC
Text: Selected compounds, including Tebipenem, were profiled against a panel of […] clinical isolates of enteric pathogens comprised of Shigella (Vietnam and Kenya; n = 135), non-typhoidal Salmonella (Vietnam; n = 117), Campylobacter (Vietnam; n = 75), and various pathogenic E. coli species (Vietnam; n = 7) ([Butcher et al., 2014]). The antimicrobial susceptibility profile of these organisms is described in Supplementary file 1.
Compound screening and dose response assays have been described previously ([Van Voorhis et al., 2016]; [Wiegand et al., 2008]). Briefly, the selected bacteria were cultured on the Luria-Bertani agar overnight at 37 °C (Campylobacter isolates were grown in 2.5% Laked Horse Blood cation-adjusted Mueller Hinton medium (CAMHB, Sigma Aldrich) and incubated in microaerophilic conditions (10% CO2, 5% O2 and 85% N2) at 42 °C); colonies were added to sterile PBS to form 0.5 McFarland solutions. […] The activity of the chemical was recorded as being active (yes) or non-active (no) for each of the tested chemicals. A non-active result was recorded when there was no evidence of bacterial inhibition, and the culture area was indistinguishable from the negative control.
MICs were evaluated using the micro dilution assay in Müller Hinton broth using 1 mM chemical stock solutions, and a final concentration of 5 × 10^5 CFU/mL bacteria. […]

S. flexneri 2457T = assay type: in vivo; details: mice, 39 mg/kg Tebipenem freebase subcutaneously, 24 hr after intraperitoneal infection
[1] = test system: clinical isolates of Shigella (S. flexneri EG478, S. flexneri_01_0417, S. sonnei_02_1181); test: Time-kill curve assays; assay type: cell-based, Shigella spp.
Protocol: Time-kill curve assays were performed in 20 mL volume in 50 mL tubes by culturing 5 × 10^5 CFU/mL Shigella spp. in Müller Hinton broth in the presence of four antimicrobial concentrations in doubling dilutions ranging from 0.5xMIC to 4xMIC. Bacteria were grown with agitation at 200 rpm at 37 °C and monitored over a time-course of 24 hr (0, 2, 4, 6, 8, and 24 hr). For each concentration and time point, 100 μL of bacterial culture were diluted and used to inoculate Luria-Bertani agar plates that were incubated at 37 °C overnight. Next, bacterial colonies were enumerated.

in vivo [2] = details: female, C57, mouse; for bioavailability: mice, n = 3
in vivo [3] = details: pig, po, 50 mg/kg
Protocol: Blood was collected from the jugular veins while manually restraining the piglets. […] Blood samples were centrifuged at 2,200 x g for 10 min at 4 °C. Plasma was extracted and stored at –80 °C. Pharmacokinetic analysis was performed as above described.

For `C[C@@H](O)[C@H]1C(=O)N2C(C(=O)O)=C(SC3CN(C4=NCCS4)C3)[C@H](C)[C@H]12` [Tebipenem], the MIC (E. coli) was < 0.1 µM, the “reduction of organisms in the small intestine” value (S. flexneri 2457T) was 1.2 log and the “time kill, antibacterial activity” value ([1]; higher concentrations (2–4 x MIC), 24 hr) was “protracted antibacterial activity”. The “time kill, population behaviour” value ([1]; lower concentrations (0.5–1 x MIC), after 6 hr exposure, all three isolates) was “Population rebounds occurred”, the Tmax (in vivo [2]) was ≤ 60 min and the AUC(0-t) (in vivo [2]; 39 mg/kg) was 80000 ng·h/mL. The AUC(0-t) (in vivo [2]; po, 39 mg/kg) was 7500 ± 1500 ng·h/mL, the Cmax (in vivo [2]; po, 39 mg/kg) was 3700 ± 900 ng/mL and the bioavailability (in vivo [2]; po, 39 mg/kg, Tebipenem PO 39 mg/kg) was ~5%. The AUC(0-t) (in vivo [2]; sc, 39 mg/kg) was 80400 ± 7700 ng·h/mL, the Cmax (in vivo [2]; sc, 39 mg/kg) was 71000 ± 15300 ng/mL and the Tmax (in vivo [2]; sc, 39 mg/kg) was 15 min. It also gave a bioavailability (in vivo [2]; sc, 39 mg/kg, Tebipenem SQ 39 mg/kg) of 44 ± 4%, an AUC(0-t) (in vivo [3]) of 32000 ng·h/mL and a concentration at 6 hr (in vivo [3]) of 1000 ng/mL.
